This note sets out measurements from ChEMBL document CHEMBL1201862, “PubChem BioAssay data set” (2004).

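Grown in 96-well plates, cells were treated for 48 hours with each compound at five concentrations. Insufficient inhibition: endpoint recorded as highest concentration tested. GI50: concentration for 50% inhibition of growth.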 Calls of active or inactive are those of the source. Cut-off read from the data, not from the text of the source: active = GI50 up to about 1.1 µM and inactive = higher.

Some test systems named below: SR; M14; RXF 631; MDA-N; Hs-578T; DU-145; MDA-MB-435; T47D.
Test in all cases: NCI-60 cell line screen, 48 h

With `COc1ccc(/C=c2\sc3n(c2=O)CCN=3)cc1`, the GI50 with SR and in the assay with M14 was > 100000 nM (inactive) throughout.
Consider `CN1COCN/C1=N/C#N`, for which the GI50 with RXF 631 and in the assay with M14 was > 100000 nM (inactive) in each case.
For the compound `COc1ccccc1OCC(COC(=O)Nc1ccccc1)OC(=O)Nc1ccccc1` (stereo not drawn), the GI50 in the assay with M14 is 91800 nM (inactive).
With `CCOC(=O)c1ccc(N(CCOS(C)(=O)=O)CCOS(C)(=O)=O)cc1`, the GI50 is 45600 nM (inactive) in the assay with MDA-N; 29300 nM (inactive) in the assay with Hs-578T; 21800 nM (inactive) in the assay on DU-145; 52200 nM (inactive) with MDA-MB-435; 43000 nM (inactive) in the assay on T47D; 53100 nM (inactive) with M14.
Turning to `C/C=C1\C[C@@H]2C(OC)Nc3cc(O)c(OC)cc3C(=O)N2C1` (stereo partly drawn), the GI50 in the assay on MDA-N was < 10 nM (active); in the assay on Hs-578T, 14.2 nM (active); with RXF 631, 8.59 nM (active); with DU-145, < 10 nM (active); with MDA-MB-435, < 10 nM (active); in the assay on T47D, 14.1 nM (active). Moreover, the GI50 is 0.431 nM (active) with SR and 4.61 nM (active) with M14.
As for `C[C@H]1O[C@@H](O[C@H]2[C@@H](O)C[C@H](O[C@H]3[C@@H](O)C[C@H](O[C@H]4CC[C@@]5(C)[C@H](CC[C@@H]6[C@@H]5CC[C@]5(C)[C@@H](C7=CC(=O)OC7)CC[C@]65O)C4)O[C@@H]3C)O[C@@H]2C)C[C@H](O)[C@@H]1O` [DIGITOXIN], the GI50 is 25.6 nM (active) in the assay on MDA-N, < 37.8 nM (active) with Hs-578T, 48.5 nM (active) with MDA-MB-435 and 33.8 nM (active) in the assay on SR.
